Results from ChEMBL document CHEMBL1149934, “(N-acyl-N-alkyl)glycyl borolysine analogs: A new class of potent thrombin inhibitors” (Bioorg Med Chem Lett, 1996).

Key:
Plasminogen = Plasminogen (Homo sapiens, UniProt P00747); test: In vitro for inhibition of plasmin
[1] = molecular target: Tissue-type plasminogen activator (Homo sapiens, UniProt P00750); test: Compound was tested in vitro for inhibition of tissue plasminogen activator
Prothrombin [2] = molecular target: T1, Prothrombin (Homo sapiens, UniProt P00734); test: In vitro for inhibition of thrombin.
Serine protease 1 = Serine protease 1 (Homo sapiens, UniProt P07477); test: Compound was tested in vitro for inhibition of trypsin
Prothrombin [3] = molecular target: T1, Prothrombin; test: Compound was tested in vitro for inhibition of thrombin

Chain of Serine protease 1 (P07477 whole entry): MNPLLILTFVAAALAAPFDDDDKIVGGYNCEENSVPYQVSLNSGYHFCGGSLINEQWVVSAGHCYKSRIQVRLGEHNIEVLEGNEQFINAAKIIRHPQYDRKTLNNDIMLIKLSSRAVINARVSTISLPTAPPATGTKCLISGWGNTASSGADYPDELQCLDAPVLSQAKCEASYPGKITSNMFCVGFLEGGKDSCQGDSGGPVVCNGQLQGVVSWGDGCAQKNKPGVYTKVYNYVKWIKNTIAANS
Chain of Tissue-type plasminogen activator (P00750 whole entry): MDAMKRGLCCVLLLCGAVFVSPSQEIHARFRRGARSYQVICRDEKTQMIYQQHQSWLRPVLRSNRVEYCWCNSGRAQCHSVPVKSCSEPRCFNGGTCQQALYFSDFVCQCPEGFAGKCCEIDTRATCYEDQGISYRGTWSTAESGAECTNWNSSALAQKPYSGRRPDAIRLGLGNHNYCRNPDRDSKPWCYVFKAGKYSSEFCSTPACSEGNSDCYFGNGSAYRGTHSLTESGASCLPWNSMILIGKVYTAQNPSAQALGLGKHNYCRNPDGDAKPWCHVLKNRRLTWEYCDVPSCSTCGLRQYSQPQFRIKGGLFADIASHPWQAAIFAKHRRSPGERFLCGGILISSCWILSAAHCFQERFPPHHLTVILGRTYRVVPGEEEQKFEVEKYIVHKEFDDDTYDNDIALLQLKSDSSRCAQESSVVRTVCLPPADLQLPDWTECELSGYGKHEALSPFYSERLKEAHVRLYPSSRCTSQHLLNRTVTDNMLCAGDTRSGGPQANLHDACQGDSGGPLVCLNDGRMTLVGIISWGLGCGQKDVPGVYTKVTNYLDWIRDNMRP
Chain of Plasminogen (P00747 97-580 limits assumed): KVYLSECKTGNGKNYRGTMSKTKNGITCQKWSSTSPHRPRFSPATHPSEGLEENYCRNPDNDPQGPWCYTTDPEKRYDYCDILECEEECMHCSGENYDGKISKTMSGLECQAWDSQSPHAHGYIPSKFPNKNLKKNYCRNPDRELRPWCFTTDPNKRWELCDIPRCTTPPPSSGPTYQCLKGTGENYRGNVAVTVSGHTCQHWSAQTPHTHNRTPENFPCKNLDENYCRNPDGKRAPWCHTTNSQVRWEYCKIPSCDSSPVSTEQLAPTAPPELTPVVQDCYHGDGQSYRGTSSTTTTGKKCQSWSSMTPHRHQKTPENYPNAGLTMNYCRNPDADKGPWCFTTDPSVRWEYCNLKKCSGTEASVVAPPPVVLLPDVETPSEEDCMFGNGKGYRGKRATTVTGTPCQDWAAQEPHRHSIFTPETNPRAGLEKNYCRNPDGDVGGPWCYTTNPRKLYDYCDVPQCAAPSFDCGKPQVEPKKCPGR
Chain of Plasminogen (P00747 581-810 limits assumed): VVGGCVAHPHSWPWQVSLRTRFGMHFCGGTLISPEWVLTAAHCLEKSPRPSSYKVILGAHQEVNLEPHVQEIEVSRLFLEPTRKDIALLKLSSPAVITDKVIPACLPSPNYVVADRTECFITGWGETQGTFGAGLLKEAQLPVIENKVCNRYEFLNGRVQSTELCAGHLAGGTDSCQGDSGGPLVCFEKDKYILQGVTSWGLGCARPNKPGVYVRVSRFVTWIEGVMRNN

| Ki (Plasminogen) [nM] | Ki [1] [nM] | Ki (Prothrombin [2]) [nM] | Ki (Serine protease 1) [nM] | IC50 (Prothrombin [3]) [nM] | Compound |
| --- | --- | --- | --- | --- | --- |
| > 10000 | 7000 | 9.1 | 21 | – | CN(CC(=O)N[C@@H](CCC/N=C\N)B(O)O)C(=O)CCc1ccccc1 |
| 140 | 3370 | 1.6 | 3.8 | – | CC(C)N(CC(=O)N[C@@H](CCCCN)B(O)O)C(=O)CCc1ccccc1 |
| 250 | 1100 | 4.9 | 8.4 | – | NCCCC[C@H](NC(=O)CN(C(=O)CCc1ccccc1)C1CCCCC1)B(O)O |
| 230 | 280 | 1.4 | – | – | NCCCC[C@H](NC(=O)CN(C(=O)CCc1ccccc1)c1ccccc1)B(O)O |
| – | – | 123 | – | – | CN(CC(=O)N[C@@H](CCCCN)B(O)O)C(=O)c1ccccc1 |
| 250 | 3800 | 1.71 | 2.8 | – | CN(CC(=O)N[C@@H](CCCCN)B(O)O)C(=O)CCc1ccccc1 |
| 170 | 680 | 0.42 | 2.5 | – | NCCCC[C@H](NC(=O)CN(CCc1ccccc1)C(=O)CCc1ccccc1)B(O)O |
| 14000 | – | 2.1 | 18 | – | CN=C(N)NCCC[C@H](NC(=O)CN(C)C(=O)CCc1ccccc1)B(O)O |
| – | – | 4.68 | – | – | NCCCC[C@H](NC(=O)CN(Cc1ccccc1)C(=O)CCc1ccccc1)B(O)O |
| – | – | 16 | – | – | CN(CC(=O)N[C@@H](CCCCN)B(O)O)C(=O)Cc1ccccc1 |
| 160 | 750 | 0.69 | 1.1 | – | NCCCC[C@H](NC(=O)CN(C(=O)CCc1ccccc1)C1CC1)B(O)O |
| 460 | 51 | 0.16 | 0.61 | – | CN(CC(=O)N[C@@H](CCCN=C(N)N)B(O)O)C(=O)CCc1ccccc1 |
| – | – | 5.4 | – | – | CN(CC(=O)N[C@@H](CCCCN)B(O)O)C(=O)CCCc1ccccc1 |
| – | – | – | – | 90000 | NCCCC[C@H](NC(=O)CNC(=O)CCc1ccccc1)B(O)O |
| 5.1 | 5.7 | – | 0.045 | – | CC(=O)N[C@H](Cc1ccccc1)C(=O)N1CCC[C@H]1C(=O)N[C@@H](CCCN=C(N)N)B(O)O |
